In patent US20230405144A1, “INDUCIBLE CELL DEATH SYSTEMS” (priority 2020, published 2023):

Columns and labels:
Type in all cases: cell-based
HEK293T cells [1] = assay: Mifepristone-induced dimerization of iCasp9: annexin V / Sytox Red staining by flow cytometry; conditions: cells transduced with SB03080, 10 uM Mifepristone, 24 hours
Protocol: Cell engineering and assessment: 24 hours before transduction 50,000 HEK293T cells were plated on a 24-well dish. Next day, cells were transduced with 50,000 pg of SB03080 (Progesterone receptor domain-Gly-Ser linker-iCasp9-IRES-red fluorescent protein) (based on p24 titer). Transduced cells were split into drug free media or media with 10 uM of Mifepristone 48 hours after transduction. 24 hours later, samples were stained for annexin V, a marker of apoptosis, and Sytox Red a live/dead stain and quantified by flow cytometry.
Cells were lentivirally transduced to express the toxin Caspase-9 with an IRES-red fluorescent protein (mKate) expressed under control of an SFFV promoter. The Caspase-9 protein includes a progesterone receptor domain. Upon Mifepristone addition, monomers of pro-apoptotic Caspase-9 oligomerize through binding of the progesterone receptor domain to Mifepristone (see FIG. 3A and System 1; chemical inducer of dimerization that activates the pro-cell death-inducing protein), as described in Example 1.

[2] = system: HEK293T cell line TL06776 (SB04397); assay: ACP repression of toxins: Incucyte confluency over 7 days; conditions: BAX expressed in HEK293T cells that do not express the ACP
Protocol: (§1) Cell engineering and assessment: 5,000 HEK293T cells were plated in a 96-well flat bottom TC treated plate. Cells were transduced same day with 5,000 pg of specified constructs (based on p24 titer). Plate transferred to the Incucyte where images of the cell layer were captured at 4 images per well every 2 hours over the course of 7 days with 10× objective. Confluency was calculated using the Incucyte basic pipeline software to map phase overlay in each well.
Stable cell lines were generated to express an ACP including a transcriptional repressor. Cells were then lentivirally transduced to express the cell-death inducing toxin BAX or iCasp-9 under control of an ACP responsive promoter. The ACP transcriptional repressor includes a degron that in response to addition of an IMiD promotes ubiquitin pathway-mediated degradation of the peptides. Upon IMiD addition, degradation of the repressor leads to expression of the cell-death inducing peptide (see System 3; degron-tagged transcriptional repressor), as described in Example 1. […]
The cell line TL06776 was assessed following expression of degron domain-ZF-minKrab (SB04397) and percent confluency was quantified from pictures taken every 2 hours over course of 7 days in triplicate. […] Viability was further assessed as the ratio of confluency of a given sample relative to the confluency of non-transduced samples.

HEK293T cells [3] = assay: Screening pro-apoptotic toxins: Incucyte confluency over 11 days
Protocol: as §1, with “Plates were” for “Plate”, “11” for “7”, “overlay. Cells were split down to 5,000 cells per well on day 4.” for “overlay in each well.”
Cells were then lentivirally transduced to express the indicated cell-death inducing toxin.

CC#C[C@]1(O)CC[C@H]2[C@@H]3CCC4=CC(=O)CCC4=C3[C@@H](c3ccc(N(C)C)cc3)C[C@@]21C [Mifepristone]
cell death (both apoptotic and by live/dead) (HEK293T cells [1]): increased cell death

Bax: cell-death inducing toxin expressed from constructs SB05403 / SB05406
decline in viability [2]: 70%
decline in viability of a heterogeneous population (HEK293T cells [3]): ≤ 70%

B1: Smac/Diablo: cell-death inducing toxin expressed from constructs SB05405 / SB05408 (protein)
chain: MAALKSWLSRSVTSFFRYRQCLCVPVVANFKKRCFSELIRPWHKTVTIGFGVTLCAVPIAQKSEPHSLSSEALMRRAVSLVTDSTSTFLSQTTYALIEAITEYTKAVYTLTSLYRQYTSLLGKMNSEEEDEVWQVIIGARAEMTSKHQEYLKLETTWMTAVGLSEMAAEAAYQTGADQASITARNHIQLVKLQVEEVHQLSRKAETKLAEAQIEELRQKTQEEGEERAESEQEAYLRED
modifications: Description of Unknown: Smac/DIABLO sequence
notes: cell-death inducing toxin expressed from constructs SB05405 / SB05408
decline in viability of a heterogeneous population (HEK293T cells [3]): did not
